≈ marks a conversion by molar mass, not a printed value.

Consider 25 compounds from US20250268877A1 (BIOGEN MA INC., priority 2020, published 2025).

A short description of data set [1]: Kinetic solubility assay (CLND), potassium phosphate buffer pH 6.8. It is filed as physicochemical. Particulars: pH 6.8, 2% DMSO, 24 hours at ambient temperature; for solubility at 24 h: potassium phosphate buffer, pH 6.8, aqueous buffer, kinetic from dmso stock.
Text: • Inject filtrates into the nitrogen detector for quantification on Analiza's Automated Discovery Workstation (ADW). • Solubility results generated in μg/mL
Another data set addresses MDR1 (Homo sapiens (Human), UniProt P08183). As to the kind of experiment: MDR1-MDCK assay (apparent permeability, efflux ratio). It is filed as in vitro ADME. Particulars: human, MDCK-MDR1, 1 μM, read-out: MDR1-MDCK_Efflux Ratio.
In another data set the target is IRAK4 (Homo sapiens (Human), UniProt Q9NWZ3). As to the kind of experiment: IRAK4 2-hour 1 mM ATP Biochemical Assay (MesoScale Detection format). Particulars: 100 pM IRAK4, read-out: IRAK4 IC50.
Sequence of IRAK4 (Q9NWZ3 whole entry): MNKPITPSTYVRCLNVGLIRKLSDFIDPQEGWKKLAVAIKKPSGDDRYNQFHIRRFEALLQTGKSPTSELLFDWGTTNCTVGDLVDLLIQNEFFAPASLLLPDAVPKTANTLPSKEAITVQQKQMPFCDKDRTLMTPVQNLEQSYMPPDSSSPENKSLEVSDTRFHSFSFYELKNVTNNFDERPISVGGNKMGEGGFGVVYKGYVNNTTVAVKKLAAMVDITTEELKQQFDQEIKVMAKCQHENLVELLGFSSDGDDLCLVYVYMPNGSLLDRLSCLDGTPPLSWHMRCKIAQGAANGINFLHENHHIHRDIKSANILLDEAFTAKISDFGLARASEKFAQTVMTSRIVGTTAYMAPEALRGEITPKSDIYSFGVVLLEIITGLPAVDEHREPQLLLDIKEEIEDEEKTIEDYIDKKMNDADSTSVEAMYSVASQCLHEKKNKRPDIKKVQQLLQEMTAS

Sequence of MDR1 (P08183 whole entry): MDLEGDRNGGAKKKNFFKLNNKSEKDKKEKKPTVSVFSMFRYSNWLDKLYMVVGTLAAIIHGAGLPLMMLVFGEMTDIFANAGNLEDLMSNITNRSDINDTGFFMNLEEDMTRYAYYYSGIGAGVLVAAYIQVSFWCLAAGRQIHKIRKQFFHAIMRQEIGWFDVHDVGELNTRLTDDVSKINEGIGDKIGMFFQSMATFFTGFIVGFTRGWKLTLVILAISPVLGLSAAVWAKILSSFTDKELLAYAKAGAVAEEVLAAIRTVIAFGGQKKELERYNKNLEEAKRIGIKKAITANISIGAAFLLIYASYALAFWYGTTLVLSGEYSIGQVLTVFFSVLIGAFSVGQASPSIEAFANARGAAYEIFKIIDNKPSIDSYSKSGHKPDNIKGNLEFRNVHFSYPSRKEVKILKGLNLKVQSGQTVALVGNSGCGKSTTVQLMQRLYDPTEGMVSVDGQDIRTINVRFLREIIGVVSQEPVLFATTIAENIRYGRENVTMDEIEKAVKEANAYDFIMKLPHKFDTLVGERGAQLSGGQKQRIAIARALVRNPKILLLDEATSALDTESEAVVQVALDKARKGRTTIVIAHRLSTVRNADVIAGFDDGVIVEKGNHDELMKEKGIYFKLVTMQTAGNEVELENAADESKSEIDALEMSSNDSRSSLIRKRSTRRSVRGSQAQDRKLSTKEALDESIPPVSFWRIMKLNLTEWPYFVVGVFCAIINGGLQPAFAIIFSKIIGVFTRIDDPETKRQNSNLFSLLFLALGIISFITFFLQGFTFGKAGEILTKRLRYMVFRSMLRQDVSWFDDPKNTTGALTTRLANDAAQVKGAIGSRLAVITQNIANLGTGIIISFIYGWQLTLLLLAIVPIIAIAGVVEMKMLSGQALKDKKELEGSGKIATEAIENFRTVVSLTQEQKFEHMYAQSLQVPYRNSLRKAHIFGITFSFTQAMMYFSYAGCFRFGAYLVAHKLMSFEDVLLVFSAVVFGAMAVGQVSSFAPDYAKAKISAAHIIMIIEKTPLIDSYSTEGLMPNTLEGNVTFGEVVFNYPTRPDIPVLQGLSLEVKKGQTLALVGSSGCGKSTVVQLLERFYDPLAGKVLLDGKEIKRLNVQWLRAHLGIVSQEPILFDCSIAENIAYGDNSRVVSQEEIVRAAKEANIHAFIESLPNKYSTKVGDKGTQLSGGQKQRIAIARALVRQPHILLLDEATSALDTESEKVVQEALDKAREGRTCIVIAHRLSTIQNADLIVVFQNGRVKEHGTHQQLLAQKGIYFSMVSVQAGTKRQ
Experimental for IRAK4: The 2-hour 1 mM ATP Biochemical Assay employed a MesoScale Detection (MSD) format.
The activity was quenched with 11 μl of 70 mM EDTA, pH 8.
To detect the phosphorylated biotinylated peptide substrate, 30 μl of the quenched reaction mixture was added to equivalent wells of a 384 well streptavidin coated MesoScale plate (Meso Scale Discovery #L21SA-1). After a 1 hour incubation of the plate for 1 hour at room temperature with gentle mixing, the plate wells were washed 3 times with 50 mM Tris, pH 7.5, 150 mM NaCl, 0.02% Tween-20.
A 25 μl volume of 1:500 anti-P-Threonine Rabbit polyclonal Antibody plus 1:500 Goat-anti-Rabbit Sulfo Tag Antibody (Meso Scale Discovery R^32AB-1) in 50 mM Tris, pH 7.5, 150 mM NaCl, 0.02% Tween-20 plus 2% BSA was then added to each well. After a 1-hour incubation of the plate for 1 hour at room temperature with gentle mixing, the plate wells were washed, 3 times with 50 mM Tris, pH 7.5, 150 mM NaCl, 0.02% Tween-20.

Take `COCC12CC(n3cc4cc(C(=O)Nc5cccn([C@H]6C[C@H]6F)c5=O)c(OC(C)C)cc4n3)(CO1)C2` [Example 67, N-(1-((1S,2R)-2-fluorocyclopropyl)-2-oxo-1,2-dihydropyridin-3-yl)-6-isopropoxy-2-(1-(methoxymethyl)-2-oxabicyclo[2.1.1]hexan-4-yl)-2H-indazole-5-carboxamide]: the solubility at 24 h in data set [1] came to 34 µg/mL (≈ 68.5 µM). Further, the efflux ratio at 120 min, 1 μM at MDR1 came to 5.31. For the same compound, the IC50 on IRAK4 is 400 pM.

In data set [1], `CC12CC(n3cc4cc(C(=O)Nc5cccn([C@@H]6C[C@@H]6F)c5=O)c(OC5CCC5)nc4n3)(CO1)C2` (racemic) [Example 25, 6-cyclobutoxy-N-(1-(cis-2-fluorocyclopropyl)-2-oxo-1,2-dihydropyridin-3-yl)-2-(1-methyl-2-oxabicyclo[2.1.1]hexan-4-yl)-2H-pyrazolo[3,4-b]pyridine-5-carboxamide] registered a solubility at 24 h of 29.2 µg/mL (≈ 60.9 µM). Moreover, on MDR1, the efflux ratio at 120 min, 1 μM was determined as 2.71. Moreover, at IRAK4, the IC50 stood at 300 pM.

`CC(C)Oc1nc2nn(C3CCOCC3)cc2cc1C(=O)Nc1cccn(C2CC2)c1=O` [Example 13] yielded a solubility at 24 h in data set [1] of 19.8 µg/mL (≈ 45.3 µM). Also, the efflux ratio at 120 min, 1 μM at MDR1 came to 3.41. Moreover, the IC50 at IRAK4 was found to be 700 pM.

In the case of `C[C@@H]1C[C@@H]1n1cccc(NC(=O)c2cc3cn(C45COC(C4)C5)nc3nc2OC2CC2)c1=O` [Example 91, 2-(2-oxabicyclo[2.1.1]hexan-4-yl)-6-cyclopropoxy-N-(1-((1S,2R)-2-methylcycloproyl)-2-oxo-1,2-dihydropyridin-3-yl)-2H-pyrazolo[3,4-b]pyridine-5-carboxamide], in data set [1], the solubility at 24 h was 46.7 µg/mL (≈ 104 µM). Also, the efflux ratio at 120 min, 1 μM at MDR1 is 5.09. In addition, the IC50 at IRAK4 was 1100 pM.

On to `CC(C)Oc1nc2nn([C@H]3CCCOC3)cc2cc1C(=O)Nc1cccn(C2CC2)c1=O` [Example 16, (S)—N-(1-cyclopropyl-2-oxo-1,2-dihydropyridin-3-yl)-6-isopropoxy-2-(tetrahydro-2H-pyran-3-yl)-2H-pyrazolo[3,4-b]pyridine-5-carboxamide], for which the solubility at 24 h in data set [1] turned out to be 44.6 µg/mL (≈ 102 µM). Further, the efflux ratio at 120 min, 1 μM on MDR1 was determined as 2.09. Also, the half-maximal inhibitory concentration (IC50) at IRAK4 came to 200 pM.

Take `O=C(Nc1cccn([C@H]2C[C@H]2F)c1=O)c1cc2cn([C@@]34CC[C@@H](C3)OC4)nc2nc1OC1CC1` (single isomer, unassigned) [Example 87]: the solubility at 24 h in data set [1] was 62.4 µg/mL (≈ 134 µM). For the same compound, the efflux ratio at 120 min, 1 μM on MDR1 stood at 7.93. The IC50 on IRAK4 worked out at 200 pM.

The compound `CC(C)Oc1cc2nn(C34COC(C)(C3)C4)cc2cc1C(=O)Nc1ccnn(C2CC2)c1=O` [Example 45, N-(2-cyclopropyl-3-oxo-2,3-dihydropyridazin-4-yl)-6-isopropoxy-2-(1-methyl-2-oxabicyclo[2.1.1]hexan-4-yl)-2H-indazole-5-carboxamide] came in with a solubility at 24 h in data set [1] of 1.2 µg/mL (≈ 2.67 µM). In addition, the efflux ratio at 120 min, 1 μM on MDR1 turned out to be 0.73. In addition, the IC50 at IRAK4 amounted to 1300 pM.

Consider `COCC12CC(n3cc4cc(C(=O)Nc5cccn([C@@H]6C[C@H]6F)c5=O)c(OC(C)C)nc4n3)(CO1)C2` (single isomer, unassigned) [Example 63], for which the solubility at 24 h in data set [1] came out at 58.8 µg/mL (≈ 118 µM). For the same compound, on MDR1, the efflux ratio at 120 min, 1 μM is 5.06. Moreover, the IC50 on IRAK4 was determined as 500 pM.

In data set [1], `COCC12CCC(n3cc4cc(C(=O)Nc5cccn(C6CC6)c5=O)c(OC(C)C)nc4n3)(CO1)C2` (stereo not drawn) [Example 29, N-(1-cyclopropyl-2-oxo-1,2-dihydropyridin-3-yl)-6-isopropoxy-2-(1-(methoxymethyl)-2-oxabicyclo[2.2.1]heptan-4-yl)-2H-pyrazolo[3,4-b]pyridine-5-carboxamide] showed a solubility at 24 h of 74.2 µg/mL (≈ 150 µM). For the same compound, the efflux ratio at 120 min, 1 μM at MDR1 turned out to be 2.79. Moreover, at IRAK4, the IC50 amounted to 200 pM.

In data set [1], `COCC12CC(n3cc4cc(C(=O)Nc5cccn([C@H]6C[C@H]6C)c5=O)c(OC5CC5)nc4n3)(CO1)C2` [Example 90] registered a solubility at 24 h of 65.2 µg/mL (≈ 133 µM). Besides, the efflux ratio at 120 min, 1 μM on MDR1 amounted to 5.39. For the same compound, at IRAK4, the IC50 came out at 1100 pM.

As to `COC[C@]12CC[C@](n3cc4cc(C(=O)Nc5cccn(C6CC6)c5=O)c(OC(C)C)nc4n3)(CO1)C2` [Example 31, N-(1-cyclopropyl-2-oxo-1,2-dihydropyridin-3-yl)-6-isopropoxy-2-((1R,4R)-1-(methoxymethyl)-2-oxabicyclo[2.2.1]heptan-4-yl)-2H-pyrazolo[3,4-b]pyridine-5-carboxamide], the solubility at 24 h in data set [1] was 61.8 µg/mL (≈ 125 µM). Besides, the efflux ratio at 120 min, 1 μM at MDR1 is 2.5. Further, the IC50 at IRAK4 came out at 200 pM.

For the compound `CC(C)Oc1cc2nn([C@]34CC[C@](C)(C3)OC4)cc2cc1C(=O)Nc1cccn([C@H]2C[C@@H]2F)c1=O` (single isomer, unassigned) [Example 62], the solubility at 24 h in data set [1] worked out at 56.1 µg/mL (≈ 117 µM). Further, on MDR1, the efflux ratio at 120 min, 1 μM is 1.6. Also, the IC50 on IRAK4 came out at 600 pM.

Consider `C[C@@H]1C[C@@H]1n1cccc(NC(=O)c2cc3cn([C@@]45CC[C@@H](C4)OC5)nc3nc2OC2CC2)c1=O` (single isomer, unassigned) [Example 93], for which, in data set [1], the “Solubility pH 6.8” value amounted to 47.6 ug/mL. Also, at MDR1, the efflux ratio at 120 min, 1 μM turned out to be 2.5. Moreover, at IRAK4, the IC50 turned out to be 500 pM.

The compound `COCC12CC(n3cc4cc(C(=O)Nc5cccn([C@H]6C[C@H]6C)c5=O)c(OC(C)C)cc4n3)(CO1)C2` [Example 78, 6-isopropoxy-2-(1-(methoxymethyl)-2-oxabicyclo[2.1.1]hexan-4-yl)-N-(1-((1S,2R)-2-methylcyclopropyl)-2-oxo-1,2-dihydropyridin-3-yl)-2H-indazole-5-carboxamide] yielded a solubility at 24 h in data set [1] of 36.1 µg/mL (≈ 73.3 µM). The efflux ratio at 120 min, 1 μM at MDR1 was found to be 2.05. Further, the IC50 at IRAK4 turned out to be 700 pM.

As for `CC(C)Oc1nc2nn(C34COC(C)(C3)C4)cc2cc1C(=O)Nc1ccnn(C2CC2)c1=O` [Example 46, N-(2-cyclopropyl-3-oxo-2,3-dihydropyridazin-4-yl)-6-isopropoxy-2-(1-methyl-2-oxabicyclo[2.1.1]hexan-4-yl)-2H-pyrazolo[3,4-b]pyridine-5-carboxamide], in data set [1], the solubility at 24 h was found to be 0.2 µg/mL (≈ 0.444 µM). For the same compound, the efflux ratio at 120 min, 1 μM at MDR1 came to 0.88. Further, the IC50 on IRAK4 is 400 pM.

`CC12CC(n3cc4cc(C(=O)Nc5cccn(C6CC6)c5=O)c(OC5CCC5)nc4n3)(CO1)C2` [Example 24, 6-cyclobutoxy-N-(1-cyclopropyl-2-oxo-1,2-dihydropyridin-3-yl)-2-(1-methyl-2-oxabicyclo[2.1.1]hexan-4-yl)-2H-pyrazolo[3,4-b]pyridine-5-carboxamide] yielded a solubility at 24 h in data set [1] of 5.53 µg/mL (≈ 12 µM). The efflux ratio at 120 min, 1 μM on MDR1 worked out at 2.53. The IC50 on IRAK4 came to 400 pM.

Turning to `CC12CC(n3cc4cc(C(=O)Nc5cccn(C6CC6)c5=O)c(OC5CCC5)cc4n3)(CO1)C2` [Example 1, 6-Cyclobutoxy-N-(1-cyclopropyl-2-oxo-1,2-dihydropyridin-3-yl)-2-(1-methyl-2-oxabicyclo[2.1.1]hexan-4-yl)-2H-indazole-5-carboxamide], in data set [1], the solubility at 24 h came to 71 µg/mL (≈ 154 µM). In addition, the half-inhibitory concentration (IC50) at IRAK4 was 900 pM.

`CC(C)Oc1nc2nn(C34COC(C3)C4)cc2cc1C(=O)Nc1cccn(C2CC2)c1=O` [Example 28, 2-(2-oxabicyclo[2.1.1]hexan-4-yl)-N-(1-cyclopropyl-2-oxo-1,2-dihydropyridin-3-yl)-6-isopropoxy-2H-pyrazolo[3,4-b]pyridine-5-carboxamide]: the solubility at 24 h in data set [1] stood at 2.7 µg/mL (≈ 6.2 µM). Further, the efflux ratio at 120 min, 1 μM at MDR1 turned out to be 4.72. Further, the IC50 on IRAK4 came out at 400 pM.

Take `CC(C)Oc1cc2nn([C@@]34CC[C@@](C)(C3)OC4)cc2cc1C(=O)Nc1cccn([C@H]2C[C@@H]2F)c1=O` (single isomer, unassigned) [Example 60]: the solubility at 24 h in data set [1] was found to be 52.9 µg/mL (≈ 110 µM). On MDR1, the efflux ratio at 120 min, 1 μM is 1.75. At IRAK4, the 50% inhibitory concentration (IC50) worked out at 500 pM.

`C[C@@]12CC[C@@](n3cc4cc(C(=O)Nc5cccn(C6CC6)c5=O)c(OC5CCC5)nc4n3)(CO1)C2` [Example 6, 6-cyclobutoxy-N-(1-cyclopropyl-2-oxo-1,2-dihydropyridin-3-yl)-2-((1S,4S)-1-methyl-2-oxabicyclo[2.2.1]heptan-4-yl)-2H-pyrazolo[3,4-b]pyridine-5-carboxamide] yielded a solubility at 24 h in data set [1] of 5.57 µg/mL (≈ 11.7 µM). Also, at MDR1, the efflux ratio at 120 min, 1 μM is 1.59. Also, the half-maximal inhibitory concentration (IC50) at IRAK4 turned out to be 400 pM.

Turning to `CC(C)Oc1cc2nn([C@]34CC[C@](C)(C3)OC4)cc2cc1C(=O)Nc1cccn([C@@H]2C[C@H]2F)c1=O` (single isomer, unassigned) [Example 61], the solubility at 24 h in data set [1] came to 51.5 µg/mL (≈ 107 µM). The efflux ratio at 120 min, 1 μM on MDR1 came to 1.43. For the same compound, the IC50 on IRAK4 was found to be 500 pM.

`CC12CC(n3cc4cc(C(=O)Nc5cccn([C@@H]6C[C@@H]6F)c5=O)c(OC5CCC5)nc4n3)(CO1)C2` [Example 26, 6-cyclobutoxy-N-(1-((1R,2S)-2-fluorocyclopropyl)-2-oxo-1,2-dihydropyridin-3-yl)-2-(1-methyl-2-oxabicyclo[2.1.1]hexan-4-yl)-2H-pyrazolo[3,4-b]pyridine-5-carboxamide]: the solubility at 24 h in data set [1] worked out at 1.6 µg/mL (≈ 3.34 µM). At MDR1, the efflux ratio at 120 min, 1 μM came out at 4.05. Further, the IC50 at IRAK4 is 7300 pM.

Take `COCC12CC(n3cc4cc(C(=O)Nc5cccn([C@H]6C[C@@H]6F)c5=O)c(OC5CCC5)nc4n3)(CO1)C2` (single isomer, unassigned) [Example 66]: in data set [1], the solubility at 24 h was 12.3 µg/mL (≈ 24.1 µM). In addition, the efflux ratio at 120 min, 1 μM on MDR1 worked out at 3.38. Moreover, the 50% inhibitory concentration (IC50) at IRAK4 turned out to be 800 pM.

`CC(C)Oc1cc2nn(C34COC(C)(C3)C4)cc2cc1C(=O)Nc1cccn([C@@H]2C[C@@H]2F)c1=O` (single isomer, unassigned) [Example 36]: the solubility at 24 h in data set [1] came to 69.5 µg/mL (≈ 149 µM). In addition, the efflux ratio at 120 min, 1 μM at MDR1 was found to be 2.96.

Turning to `CC(C)Oc1nc2nn(C34COC(C)(C3)C4)cc2cc1C(=O)Nc1cccn([C@H]2C[C@@H]2F)c1=O` (single isomer, unassigned) [Example 43], the solubility at 24 h in data set [1] was found to be 1.8 µg/mL (≈ 3.85 µM). Moreover, the efflux ratio at 120 min, 1 μM at MDR1 stood at 1.82.

Usually solubility stands for how much of the substance goes into solution per volume. Higher therefore signals a readily soluble substance. As a reminder, the IC50 is the point on the concentration scale where inhibition reaches its midpoint.
